Results as given in patent US6479467B1, “Cyclodextrin ethers” (Eastman Chemical Company, priority 1999, dated 2002).

Experimental: The suspensions were stirred for 24 hours at 25° C. The undissolved residues were removed by filtration through a […] filter. The solutions were diluted with a 1:1 water/ethanol mixture and concentrations of the guest molecules were determined spectrophotometrically using an HP 8542 diode array spectrophotometer. The solubility of the guest molecules was represented as a function of the CD derivative concentration. The apparent binding constants were calculated from the slope of the solubility isotherm. The guest molecules evaluated were water-immiscible pharmaceuticals, fragrances, and other organic molecules.

Compound	Kc(HBen-β-CD), apparent binding constant in guest molecule/CD derivative complex [M⁻¹]	Kc(HP-β-CD), apparent binding constant in guest molecule/CD derivative complex [M⁻¹]	Binding constants compared with HP-β-CD, in words
COc1ccc(Cl)cc1C(=O)NCCc1ccc(S(=O)(=O)NC(=O)NC2CCCCC2)cc1 [Glibenclamide, glibenclamide]	136	62	
hydroxybutenyl-β-cyclodextrin [HBen-β-CD]			higher binding constants than did HP-β-CD
CC(C)Cc1ccc(C(C)C(=O)O)cc1 (centres unmarked) [Ibuprofen, ibuprofen]	520	376	
Cc1ccccc1 [Toluene, toluene]	1111	773	
O=C(O)c1ccccc1O [Salicylic Acid, salicylic acid]	183		
